Assay results published in article PMC7144934, “Design, Synthesis and Biological Evaluation of Phenyl Urea Derivatives as IDO1 Inhibitors” (Molecules, 2020).

Experiments:
[1] = target: T1, Recombinant human IDO1 (rhIDO1) (Homo sapiens, UniProt P14902); experiment: Enzyme assay for IDO1 inhibition; type: biochemical; details: for IC50 / IDO1 inhibitory activity (in words): rhIDO1 enzyme assay; for IC50: 37 °C, 45 min
T1 construct: made in house

[2] = target: T2, Recombinant human TDO (rhTDO) (Homo sapiens, UniProt P48775); experiment: Enzyme assay for TDO inhibition; type: biochemical; details: 37 °C, 45 min
T2 construct: made in house
Procedure: Recombinant human IDO1 and TDO were expressed and purified according to the reported procedures. The assay was performed according to the literature: A standard reaction mixture (100 µL) containing 100 mM potassium phosphate buffer (pH 6.5), 40 mM ascorbic acid (neutralized with NaOH), 200 µg/mL catalase, 20 µM methylene blue and 0.05 µM rhIDO1 or rhTDO was added to the solution containing the substrate L-tryptophan and the test sample at a determined concentration. The reaction was carried out at 37 °C for 45 min and stopped by adding 20 µL of 30% (w/v) trichloroacetic acid. After heating at 65 °C for 15 min, 100 µL of 2% (w/v) p-dimethylaminobenzaldehyde in acetic acid was added to each well. The yellow pigment derived from kynurenine was measured at 492 nm using a SYNERGY-H1 microplate reader (Biotek Instruments, Inc., Winooski, VT, USA). IC50 was analyzed using the GraphPad Prism 8.0 software (GraphPad Software, San Diego, CA, USA).

T1 sequence (P14902 whole entry): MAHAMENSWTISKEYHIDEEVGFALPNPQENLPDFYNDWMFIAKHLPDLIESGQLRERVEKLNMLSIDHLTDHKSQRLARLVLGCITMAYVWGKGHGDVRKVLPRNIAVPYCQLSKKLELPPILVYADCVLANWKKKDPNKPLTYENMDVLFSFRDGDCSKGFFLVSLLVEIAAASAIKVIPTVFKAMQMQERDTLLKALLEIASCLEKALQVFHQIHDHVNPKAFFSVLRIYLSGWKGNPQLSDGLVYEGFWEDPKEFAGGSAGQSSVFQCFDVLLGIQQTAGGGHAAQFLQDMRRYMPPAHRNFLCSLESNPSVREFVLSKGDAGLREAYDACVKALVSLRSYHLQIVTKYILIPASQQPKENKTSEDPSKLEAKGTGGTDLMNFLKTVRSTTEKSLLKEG
T2 sequence (P48775 whole entry): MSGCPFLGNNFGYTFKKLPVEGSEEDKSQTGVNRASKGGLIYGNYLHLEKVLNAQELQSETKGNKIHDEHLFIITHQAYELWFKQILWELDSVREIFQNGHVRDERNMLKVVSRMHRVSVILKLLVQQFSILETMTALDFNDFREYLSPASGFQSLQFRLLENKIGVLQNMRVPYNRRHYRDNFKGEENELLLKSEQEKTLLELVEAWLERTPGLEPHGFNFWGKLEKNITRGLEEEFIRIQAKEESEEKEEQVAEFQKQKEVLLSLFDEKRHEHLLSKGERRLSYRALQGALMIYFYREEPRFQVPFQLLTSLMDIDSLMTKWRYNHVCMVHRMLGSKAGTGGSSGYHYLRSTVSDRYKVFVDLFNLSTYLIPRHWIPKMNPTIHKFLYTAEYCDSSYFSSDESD

| SMILES | IC50 [1] [µM] | IC50 [2] [µM] | IDO1 inhibitory activity (in words) [1] | fold more potent than compound BMS-E30 (IDO1) ([1]; ratio of IDO1 enzyme IC50 values) [fold] |
| --- | --- | --- | --- | --- |
| CCOC(=O)CC(c1ccc(N2CC(C)CC(C)C2)c(NC(=O)Nc2ccccc2)c1)C(F)(F)F (stereo not shown) [g1, 3-[4-(3,5-dimethylpiperidin-1-yl)-3-(3-phenylureido)-phenyl]-4,4,4-trifluorobutyric Acid Ethyl Ester] | > 100 | > 100 | – | – |
| CCOC(=O)CC(c1ccc(N2CC(C)CC(C)C2)c(NC(=O)Nc2ccc(C)cc2)c1)C(F)(F)F (stereo not shown) [g2, 3-[4-(3,5-dimethylpiperidin-1-yl)-3-(3-p-tolylureido)phenyl]-4,4,4-trifluorobutyric Acid Ethyl Ester] | > 100 | > 100 | – | – |
| CCOC(=O)CC(c1ccc(N2CC(C)CC(C)C2)c(NC(=O)Nc2ccc(Cl)cc2)c1)C(F)(F)F (stereo not shown) [g3, 3-[3-[3-(4-chlorophenyl)-ureido]-4-(3,5-dimethylpiperidin-1-yl)-phenyl]-4,4,4-trifluorobutyric Acid Ethyl Ester] | > 100 | > 100 | – | – |
| Cc1ccc(NC(=O)Nc2cc(C(CC(=O)O)C(F)(F)F)ccc2N2CC(C)CC(C)C2)cc1 (stereo not shown) [i2, 3-[4-(3,5-dimethylpiperidin-1-yl)-3-(3-p-tolylureido)phenyl]-4,4,4-trifluorobutyric Acid] | 8.61 | > 100 | more potent IDO1 inhibitory activity than the unsubstituted i1 | – |
| CC1CC(C)CN(c2ccc(C(CC(=O)O)C(F)(F)F)cc2NC(=O)Nc2ccc(Cl)cc2)C1 (stereo not shown) [i3, 3-[3-[3-(4-chlorophenyl)ureido]-4-(3,5-dimethylpiperidin-1-yl)-phenyl]-4,4,4-trifluorobutyric Acid] | 5.69 | > 100 | more potent IDO1 inhibitory activity than the unsubstituted i1 | – |
| CC1CC(C)CN(c2ccc(C(CC(=O)O)C(F)(F)F)cc2NC(=O)NC2CCCCC2)C1 (stereo not shown) [i4, 3-[3-(3-cyclohexylureido)-4-(3,5-dimethylpiperidin-1-yl)phenyl]-4,4,4-trifluorobutyric Acid] | > 100 | > 100 | loss of inhibition | – |
| CCCCNC(=O)Nc1cc(C(CC(=O)O)C(F)(F)F)ccc1N1CC(C)CC(C)C1 (stereo not shown) [i5, 3-[3-(3-butylureido)-4-(3,5-dimethylpiperidin-1-yl)-phenyl]-4,4,4-trifluorobutyric Acid] | > 100 | > 100 | loss of inhibition | – |
| Cc1ccccc1NC(=O)Nc1cc(C(CC(=O)O)C(F)(F)F)ccc1N1CC(C)CC(C)C1 (stereo not shown) [i6, 3-[4-(3,5-dimethylpiperidin-1-yl)-3-(3-o-tolylureido)phenyl]-4,4,4-trifluorobutyric Acid] | > 100 | > 100 | lost all IDO1 inhibitory activity | – |
| Cc1cccc(NC(=O)Nc2cc(C(CC(=O)O)C(F)(F)F)ccc2N2CC(C)CC(C)C2)c1 (stereo not shown) [i7, 3-[4-(3,5-dimethylpiperidin-1-yl)-3-(3-m-tolylureido)phenyl]-4,4,4-trifluorobutyric Acid] | > 100 | > 100 | lost all IDO1 inhibitory activity | – |
| CC1CC(C)CN(c2ccc(C(CC(=O)O)C(F)(F)F)cc2NC(=O)Nc2ccccc2Cl)C1 (stereo not shown) [i8, 3-[3-[3-(2-chlorophenyl)ureido]-4-(3,5-dimethylpiperidin-1-yl)-phenyl]-4,4,4-trifluorobutyric Acid] | > 100 | > 100 | lost all IDO1 inhibitory activity | – |
| CC1CC(C)CN(c2ccc(C(CC(=O)O)C(F)(F)F)cc2NC(=O)Nc2cccc(Cl)c2)C1 (stereo not shown) [i9, 3-[3-[3-(3-chlorophenyl)ureido]-4-(3,5-dimethylpiperidin-1-yl)-phenyl]-4,4,4-trifluorobutyric Acid] | > 100 | > 100 | lost all IDO1 inhibitory activity | – |
| CC1CC(C)CN(c2ccc(C(CC(=O)O)C(F)(F)F)cc2NC(=O)Nc2ccccc2C#N)C1 (stereo not shown) [i10, 3-[3-[3-(2-cyanophenyl)ureido]-4-(3,5-dimethylpiperidin-1-yl)-phenyl]-4,4,4-trifluorobutyric Acid] | > 100 | > 100 | lost all IDO1 inhibitory activity | – |
| CC1CC(C)CN(c2ccc(C(CC(=O)O)C(F)(F)F)cc2NC(=O)Nc2cccc(C#N)c2)C1 (stereo not shown) [i11, 3-[3-[3-(3-cyanophenyl)ureido]-4-(3,5-dimethylpiperidin-1-yl)-phenyl]-4,4,4-trifluorobutyric Acid] | > 100 | > 100 | lost all IDO1 inhibitory activity | – |
| COc1ccccc1NC(=O)Nc1cc(C(CC(=O)O)C(F)(F)F)ccc1N1CC(C)CC(C)C1 (stereo not shown) [i13, 3-{4-(3,5-dimethylpiperidin-1-yl)-3-[3-(2-methoxyphenyl)ureido]-phenyl}-4,4,4-trifluorobutyric Acid] | > 100 | > 100 | lost all IDO1 inhibitory activity | – |
| COc1cccc(NC(=O)Nc2cc(C(CC(=O)O)C(F)(F)F)ccc2N2CC(C)CC(C)C2)c1 (stereo not shown) [i14, 3-{4-(3,5-dimethylpiperidin-1-yl)-3-[3-(3-methoxyphenyl)ureido]-phenyl}-4,4,4-trifluorobutyric Acid] | > 100 | > 100 | lost all IDO1 inhibitory activity | – |
| COc1ccc(NC(=O)Nc2cc(C(CC(=O)O)C(F)(F)F)ccc2N2CC(C)CC(C)C2)cc1 (stereo not shown) [i15, 3-{4-(3,5-dimethylpiperidin-1-yl)-3-[3-(4-methoxyphenyl)ureido]-phenyl}-4,4,4-trifluorobutyric Acid] | 1.62 | > 100 | more potent IDO1 inhibitory activity than the unsubstituted i1 | – |
| CC1CC(C)CN(c2ccc(C(CC(=O)O)C(F)(F)F)cc2NC(=O)Nc2ccc(F)cc2F)C1 (stereo not shown) [i16, 3-[3-[3-(2,4-difluorophenyl)ureido]-4-(3,5-dimethylpiperidin-1-yl)-phenyl]-4,4,4-trifluorobutyric Acid] | > 100 | > 100 | no inhibitory activities | – |
| CC1CC(C)CN(c2ccc(C(CC(=O)O)C(F)(F)F)cc2NC(=O)Nc2ccc(Cl)cc2Cl)C1 (stereo not shown) [i17, 3-[3-[3-(2,4-dichlorophenyl)ureido]-4-(3,5-dimethylpiperidin-1-yl)-phenyl]-4,4,4-trifluorobutyric Acid] | > 100 | > 100 | no inhibitory activities | – |
| CC1CC(C)CN(c2ccc(C(CC(=O)O)C(F)(F)F)cc2NC(=O)Nc2ccc(F)cc2)C1 (stereo not shown) [i18, 3-{4-(3,5-dimethylpiperidin-1-yl)-3-[3-(4-fluorophenyl)ureido]-phenyl}-4,4,4-trifluorobutyric Acid] | 5.48 | > 100 | – | – |
| CC1CC(C)CN(c2ccc(C(CC(=O)O)C(F)(F)F)cc2NC(=O)Nc2ccc(Br)cc2)C1 (stereo not shown) [i19, 3-[3-[3-(4-bromophenyl)ureido]-4-(3,5-dimethylpiperidin-1-yl)-phenyl]-4,4,4-trifluorobutyric Acid] | 4.08 | > 100 | – | – |
| CCc1ccc(NC(=O)Nc2cc(C(CC(=O)O)C(F)(F)F)ccc2N2CC(C)CC(C)C2)cc1 (stereo not shown) [i20, 3-{4-(3,5-dimethylpiperidin-1-yl)-3-[3-(4-ethylphenyl)ureido]phenyl}-4,4,4-trifluorobutyric Acid] | 9.98 | > 100 | – | – |
| CC1CC(C)CN(c2ccc(C(CC(=O)O)C(F)(F)F)cc2NC(=O)Nc2ccc(C(C)C)cc2)C1 (stereo not shown) [i21, 3-{4-(3,5-dimethylpiperidin-1-yl)-3-[3-(4-isopropylphenyl)ureido]-phenyl}-4,4,4-trifluorobutyric Acid] | > 100 | > 100 | loss of activity | – |
| CC1CC(C)CN(c2ccc(C(CC(=O)O)C(F)(F)F)cc2NC(=O)Nc2ccc(OC(F)(F)F)cc2)C1 (stereo not shown) [i22, 3-{4-(3,5-dimethylpiperidin-1-yl)-3-[3-(4-trifluoromethoxyphenyl)-ureido]phenyl}-4,4,4-trifluorobutyric Acid] | 1.32 | > 100 | – | – |
| CC1CC(C)CN(c2ccc(C(CC(=O)O)C(F)(F)F)cc2NC(=O)Nc2ccc(C(F)(F)F)cc2)C1 (stereo not shown) [i23, 3-{4-(3,5-dimethylpiperidin-1-yl)-3-[3-(4-trifluoromethylphenyl)-ureido]phenyl}-4,4,4-trifluorobutyric Acid] | 0.415 | > 100 | – | – |
| CC1CC(C)CN(c2ccc(C(CC(=O)O)C(F)(F)F)cc2NC(=O)Nc2ccc([N+](=O)[O-])cc2)C1 (stereo not shown) [i24, 3-{4-(3,5-dimethylpiperidin-1-yl)-3-[3-(4-nitrophenyl)ureido]phenyl}-4,4,4-trifluorobutyric Acid] | 0.157 | > 100 | – | 55 |
| CC1CC(C)CN(c2ccc(C(CC(=O)O)C(F)(F)F)cc2NC(=O)Cc2ccc(C#N)cc2)C1 (stereo not shown) [j1, 3-[3-[2-(4-cyanophenyl)acetylamino]-4-(3,5-dimethylpiperidin-1-yl)-phenyl]-4,4,4-trifluorobutyric Acid] | > 100 | > 100 | no inhibitory activity | – |
| CC1CC(C)CN(c2ccc(C(CC(=O)O)C(F)(F)F)cc2NC(=O)Cc2ccc(C(F)(F)F)cc2)C1 (stereo not shown) [j2, 3-{4-(3,5-dimethylpiperidin-1-yl)-3-[2-(4-trifluoromethylphenyl)-acetylamino]phenyl}-4,4,4-trifluorobutyric Acid] | > 100 | > 100 | no inhibitory activity | – |
